Assay results published in ChEMBL document CHEMBL5149970 (J Med Chem, 2021).
Activity calls are given as the source filed them. The calls are words filed in the database; no cut-off is given here.

Tests used:
[1] = test system: EU-1; test: Inhibition of MDM2/XIAP IRES mRNA interaction in human EU-1 cells assessed as induction of MDM2 degradation by measuring fold change in MDM2 protein expression at 1 uM measured after 90 mins by CHX chase assay (reference value: 0.76); format: cell-based
[2] = test system: NB-1643; test: Inhibition of colony formation in human NB-1643 cells assessed as reduction in colony number and size at 0.25 to 4 uM incubated for 2 weeks by crystal violet staining based analysis; format: functional, cell-based; details: dose 0.25-4 µM
[3] = test system: EU-1; test: Inhibition of MDM2/XIAP IRES mRNA interaction in human EU-1 cells assessed as induction of MDM2 degradation by measuring downregulation of MDM2 protein expression at 1 uM measured after 8 hrs by western blot analysis; format: cell-based
[4] = test system: EU-1; test: Inhibition of MDM2/XIAP IRES mRNA interaction in human EU-1 cells assessed as fold change in p53 protein expression at 1 uM measured after 90 mins by CHX chase assay (reference value: 0.13); format: cell-based
[5] = Volume of distribution in Sprague-Dawley rat at 10 mg/kg, iv measured for 24 hrs by LC-MS/MS analysis; format: ADME, organism-based; details: in vivo
[6] = test system: EU-1; test: Inhibition of MDM2/XIAP IRES mRNA interaction in human EU-1 cells assessed as increase in p53 protein expression at 1 uM measured after 2 to 24 hrs by western blot analysis; format: cell-based; details: time 2-24 hrs
[7] = test system: EU-1; test: Inhibition of MDM2/XIAP IRES mRNA interaction in human EU-1 cells assessed as inhibition of XIAP mRNA translation by measuring reduction in state of polyribosome association of XIAP mRNA in cytoplasmic lysate at 1 uM measured after 4 hrs by linear sucrose gradient fractionation based qRT-PCR analysis; format: subcellular; details: Cytoplasm
[8] = test system: EU-1; test: Inhibition of MDM2/XIAP IRES mRNA interaction in human EU-1 cells assessed as increase in p53 protein expression measured after 24 hrs by western blot analysis; format: cell-based; details: dose 0.25-2 µM, DDE = dose-dependent effect
[9] = test system: SH-EP1; test: Inhibition of colony formation in human SH-EP1 cells assessed as reduction in colony number and size at 0.25 to 4 uM incubated for 2 weeks by crystal violet staining based analysis; format: functional, cell-based; details: dose 0.25-4 µM
[10] = test system: EU-1; test: Inhibition of MDM2/XIAP IRES mRNA interaction in human EU-1 cells assessed as induction of MDM2 degradation by measuring fold change in MDM2 protein expression at 1 uM measured after 60 mins by CHX chase assay (reference value: 0.85); format: cell-based
[11] = test system: EU-1; test: Inhibition of MDM2/XIAP IRES mRNA interaction in human EU-1 cells assessed as fold change in p53 protein expression at 1 uM measured after 60 mins by CHX chase assay (reference value: 0.19); format: cell-based
[12] = test system: EU-1; test: Inhibition of MDM2/XIAP IRES mRNA interaction in human EU-1 cells assessed as induction of MDM2 degradation by measuring downregulation of MDM2 protein expression at 1 uM measured after 2 to 24 hrs by western blot analysis; format: cell-based; details: time 2-24 hrs
[13] = test system: EU-1; test: Inhibition of MDM2/XIAP IRES mRNA interaction in human EU-1 cells assessed as increase in caspase-3 cleavage at 1 uM measured after 8 hrs by western blot analysis; format: cell-based
[14] = test system: EU-1; test: Inhibition of MDM2/XIAP IRES mRNA interaction in human EU-1 cells assessed as induction of MDM2 degradation by measuring fold change in MDM2 protein expression at 1 uM measured after 30 mins by CHX chase assay (reference value: 0.92); format: cell-based
[15] = test system: EU-1; test: Inhibition of MDM2/XIAP IRES mRNA interaction in human EU-1 cells assessed as downregulation of XIAP protein expression incubated for 24 hrs by western blot analysis; format: cell-based; details: dose 0.25-2 µM, DDE = dose-dependent effect
[16] = AUC in Sprague-Dawley rat at 25 mg/kg, po measured for 24 hrs by LC-MS/MS analysis; format: ADME, organism-based; set-up: time 24 hrs, dose 25 mg/kg, route po; details: in vivo
[17] = test system: EU-1; test: Inhibition of MDM2/XIAP IRES mRNA interaction in human EU-1 cells assessed as increase in PARP cleavage at 1 uM measured after 8 hrs by western blot analysis; format: cell-based
[18] = test system: EU-1; test: Inhibition of MDM2/XIAP IRES mRNA interaction in human EU-1 cells assessed as increase in p21 protein expression at 1 uM measured after 8 hrs by western blot analysis; format: cell-based
[19] = test system: EU-1; test: Inhibition of MDM2/XIAP IRES mRNA interaction in human EU-1 cells assessed as inhibition of XIAP mRNA translation by measuring increase in cytoplasmic fraction containing translation-inactive complexes, mono ribosomes at 1 uM measured after 4 hrs by linear sucrose gradient fractionation based qRT-PCR analysis; format: subcellular; details: Cytoplasm
[20] = Antiproliferative activity against human LA1-55n cells assessed as reduction in cell survival incubated for 48 hrs by WST assay; format: functional, cell-based
[21] = Antiproliferative activity against human EU-1 cells assessed as inhibition of cell growth incubated for 48 hrs by WST assay; format: functional, cell-based; details: EU-1, 48 h
[22] = Antiproliferative activity against human SH-EP1 cells assessed as reduction in cell survival incubated for 48 hrs by WST assay; format: functional, cell-based; details: SH-EP1, 48 h
[23] = test system: EU-1; test: Inhibition of MDM2/XIAP IRES mRNA interaction in human EU-1 cells assessed as increase in p53 protein expression at 1 uM measured after 8 hrs by western blot analysis; format: cell-based
[24] = Elimination half life in Sprague-Dawley rat at 10 mg/kg, iv measured for 24 hrs by LC-MS/MS analysis; format: ADME, organism-based; details: in vivo
[25] = Inhibition of colony formation in human BFU-E cells assessed as reduction in colony number and size at 1 uM incubated for 14 days by crystal violet staining based analysis; format: toxicity, cell-based; details: 336 h, time 14 day
[26] = test system: EU-1; details: Homo sapiens, dose 1.0 µM, time 4.0 hrs
[27] = test system: EU-1; test: Inhibition of MDM2/XIAP IRES mRNA interaction in human EU-1 cells assessed as fold change in p53 protein expression at 1 uM measured after 120 mins by CHX chase assay (reference value: 0.08); format: cell-based
[28] = test system: CFU-GM; test: Inhibition of colony formation in human CFU-GM cells assessed as reduction in colony number and size at 1 uM incubated for 14 days by crystal violet staining based analysis; format: toxicity, cell-based; details: 336 h, time 14 day
[29] = test system: EU-1; test: Inhibition of MDM2/XIAP IRES mRNA interaction in human EU-1 cells assessed as downregulation of XIAP protein expression at 1 uM measured after 2 to 24 hrs by western blot analysis; format: cell-based; details: time 2-24 hrs
[30] = test system: EU-1; test: Inhibition of MDM2/XIAP IRES mRNA interaction in human EU-1 cells assessed as increase in caspase-9 cleavage at 1 uM measured after 8 hrs by western blot analysis; format: cell-based
[31] = test system: EU-1; test: Inhibition of MDM2/XIAP IRES mRNA interaction in human EU-1 cells assessed as induction of MDM2 self-ubiquitination at 1 uM measured for 90 mins by immunoprecipitation-western blot analysis; format: cell-based
[32] = Antiproliferative activity against human NB-1643 cells assessed as reduction in cell survival incubated for 48 hrs by WST assay; format: functional, cell-based; details: NB-1643, 48 h

## Cc1ccc(NS(=O)(=O)c2ccc3c(c2)C2OCCC2C(c2ccc(C(=O)C(C)C)cc2)N3)cc1C (configuration not stated)
[1]
  fold change (FC): 0.25
[2]
  inhibition: Active
[3]
  inhibition: Active
[4]
  fold change (FC): 1.15
[5]
  Vd: 2.88 L/kg
[6]
  inhibition: Active
[7]
  inhibition: Active
[8]
  inhibition: Dde
[9]
  inhibition: Active
[10]
  fold change (FC): 0.47
[11]
  fold change (FC): 1.09
[12]
  inhibition: Active
[13]
  inhibition: Active
[14]
  fold change (FC): 0.78
[15]
  inhibition: Dde
[16]
  AUC: 710 ng·h/mL
[17]
  inhibition: Active
[18]
  inhibition: Active
[19]
  inhibition: Active
[20]
  IC50: 500 nM
[21]
  IC50: 300 nM
[22]
  IC50: 500 nM
[23]
  inhibition: Active
[24]
  beta t1/2: 0.94 h
[25]
  Activity: Non-Toxic
[26]
  T1/2: > 2 h
[27]
  fold change (FC): 1.14
[28]
  Activity: Non-Toxic
[29]
  inhibition: Active
[30]
  inhibition: Active
[31]
  inhibition: Active
[32]
  IC50: 500 nM
